Results published in patent EP0409414B1, “Diaryl ether cycloalkanes” (IMPERIAL CHEMICAL INDUSTRIES PLC, priority 1989, dated 1991).

Target: T1, 5-LO (Homo sapiens, UniProt P09917)
T1 construct: incubating a test compound with heparinised human blood, prior to challenge with the calcium ionophore A23187; endogenous in cells; host or cells: heparinised human whole blood (leukocytes)
T1 sequence (P09917 1-674): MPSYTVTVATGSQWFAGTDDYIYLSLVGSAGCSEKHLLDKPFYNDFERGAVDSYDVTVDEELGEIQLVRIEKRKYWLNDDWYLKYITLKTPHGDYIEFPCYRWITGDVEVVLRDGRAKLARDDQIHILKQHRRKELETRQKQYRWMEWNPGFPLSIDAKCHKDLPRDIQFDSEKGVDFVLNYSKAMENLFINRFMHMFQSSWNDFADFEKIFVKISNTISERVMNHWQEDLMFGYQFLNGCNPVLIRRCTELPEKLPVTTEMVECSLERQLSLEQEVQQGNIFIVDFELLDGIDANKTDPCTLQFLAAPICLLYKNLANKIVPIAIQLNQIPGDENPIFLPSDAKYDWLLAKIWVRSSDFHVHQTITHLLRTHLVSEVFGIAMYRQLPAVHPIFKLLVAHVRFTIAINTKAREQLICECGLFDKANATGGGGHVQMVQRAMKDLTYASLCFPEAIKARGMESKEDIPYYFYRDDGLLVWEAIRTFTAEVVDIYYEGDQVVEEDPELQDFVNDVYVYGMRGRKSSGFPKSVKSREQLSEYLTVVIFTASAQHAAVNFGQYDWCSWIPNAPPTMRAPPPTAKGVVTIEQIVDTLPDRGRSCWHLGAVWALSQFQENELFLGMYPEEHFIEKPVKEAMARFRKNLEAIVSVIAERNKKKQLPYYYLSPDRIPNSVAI
Assay: heparinised human blood challenged with calcium ionophore A23187, radioimmunoassay of LTB4 (test b)
Format: cell-based
Conditions: individual compounds, read-out: IC50 against LTB4
Procedure: As stated previously, the compounds of the formula I are inhibitors of the enzyme 5-LO. […] This test provides a measure of the intrinsic inhibitory properties against soluble 5-LO in an extracellular environment. • b) An in vitro assay system involving incubating a test compound with heparinised human blood, prior to challenge with the calcium ionophore A23187 and then indirectly measuring the inhibitory effects on 5-LO by assaying the amount of LTB4 using the specific radioimmunoassay described by Carey and Forder (F. Carey and R.A. Forder, Brit. […] The effects of a test compound on the enzyme cyclooxygenase (which is involved in the alternative metabolic pathway for arachidonic acid and gives rise to prostaglandins, thromboxanes and related metabolites) may be measured at the same time using the specific radioimmunoassay for thromboxane B2(TxB2) described by Carey and Forder (see above). […] It permits the selectivity of the inhibitory effect on 5-LO or cyclooxygenase to be assessed. • c) An ex vivo assay system, which is a variation of test b) above, involving administration of a test compound (usually orally as the suspension produced when a solution of the test compound in dimethylsulphoxide is added to carboxymethylcellulose), blood collection, heparinisation, challenge with A23187 and radioimmunoassay of LTB4 and TxB2. […]

Row | IC50 [µM] | Structure (SMILES)
1 | ~0.2 | CO[C@H]1CCC[C@@]1(OC)c1cc(F)cc(Sc2ccc3ccccc3c2)c1 (racemic) [Example 1, (1RS,2SR)-1-[5-fluoro-3-(naphth-2-ylthio)phenyl]-1,2-dimethoxycyclopentane]
2 | ~0.2 | C=CCO[C@@]1(c2cc(F)cc(Sc3ccc4ccccc4c3)c2)CCC[C@@H]1OC (racemic) [Example 2, (1RS,2SR)-1-allyloxy-1-[5-fluoro-3-(naphth-2-ylthio)phenyl]-2-methoxycyclopentane]
